Data: US8115033B2, “3-(4-hydroxy-3-methoxyphenyl)-1-(4-hydroxyphenyl)-1-propanone and use thereof as an antimicrobial active ingredient” (Symrise AG, priority 2007, dated 2012)
Converted amounts (≈) assume the structure as drawn.

Assays:
[1] = tested on: Brevibacterium epidermidis (ATCC 35514); test: turbidimetric growth-curve MIC determination; assay type: cell-based; details: turbidimetry 620 nm, 16 h, 37° C.
Excerpt: (§1) The recognition that 3-(4-hydroxy-3-methoxyphenyl)-1-(4-hydroxyphenyl)-1-propanone of the formula 1 is very particularly suitable for combating microorganisms which are responsible for body odor is based on series of investigations relating to the particularly relevant microorganisms Staphylococcus epidermidis, Corynebacterium xerosis and Brevibacterium epidermidis. The antimicrobial action of 3-(4-hydroxy-3-methoxyphenyl)-1-(4-hydroxyphenyl)-1-propanone is here detected with the assistance of a turbidimetric measurement method. Turbidity measurement is used to establish growth curves for the particular microorganism in the presence and absence of an antimicrobial active ingredient. A possible inhibitory action of the test substance used is identified from the profile of the growth curves. Solutions with saline or DMSO for 100% growth are prepared as a negative control. The active substances to be investigated are first diluted in DMSO in reaction vessels. Dilution is carried out in accordance with the concentration range to be tested and corresponds in each case to 100 times the concentration of the subsequent final concentration in the test. Testing is usually begun with a final concentration of 2000 ppm in the test. Growth curves at final concentrations of 1000 ppm, 500 ppm, 250 ppm, 125 ppm, 64 ppm, 32 ppm, 16 ppm and 8 ppm are subsequently determined. The bacterial cultures are then incubated in the presence of the various final concentrations of antimicrobial active ingredient for 16 h (incubation temperature: 37° C.). The absorption values (wavelength 620 nm; measurement interval: 20 minutes) obtained over the 16 hour period of turbidimetric measurement are recorded and exported into the spreadsheet program MS Excel. Means from in each case three parallel batches are calculated and used as the basis for establishing growth curves. The curves of the individual test sample concentrations are compared with those for the negative controls and the MIC value (minimum inhibitory concentration) is determined. […]

[2] = tested on: Corynebacterium xerosis (DSM 20743); test: turbidimetric growth-curve MIC determination; assay type: cell-based; details: DSM20743, turbidimetry 620 nm, 16 h, 37° C., read-out: MIC value (complete inhibition of growth)
Excerpt: as §1

[3] = tested on: Staphylococcus epidermidis (ATCC 12228); test: turbidimetric growth-curve MIC determination; assay type: cell-based; details: turbidimetry 620 nm, 16 h, 37° C.
Excerpt: as §1

[4] = tested on: Corynebacterium xerosis (DSM 20743); test: quantitative suspension test; assay type: cell-based
[5] = tested on: Staphylococcus epidermidis (ATCC 12228); test: quantitative suspension test; assay type: cell-based
[6] = tested on: Brevibacterium epidermidis (ATCC 35514); test: quantitative suspension test; assay type: cell-based
[7] = tested on: microorganisms which cause body odor; test: in vivo sniffing tests on human test subjects suffering from severe body odor; details: human test subjects with severe body odor
[8] = investigations into chemical properties (stability); assay type: physicochemical
Excerpt: In addition, in pure form, the compound according to the invention of the formula 1 is a white solid which forms a colorless solution in (cosmetic and/or pharmaceutical) carriers; furthermore, no discoloration was observed after incorporation of the compound according to the invention of the formula 1 in cosmetic products, in medical devices and in pharmaceutical preparations.

With `COc1cc(CCC(=O)c2ccc(O)cc2)ccc1O` [3-(4-hydroxy-3-methoxyphenyl)-1-(4-hydroxyphenyl)-1-propanone] the “concentration giving inhibition of the growth” value [1] was “below 0.1 wt. %”, the MIC [2] was 500 µg/mL (≈ 1840 µM) and the “concentration giving inhibition of the growth” value [3] was “below 0.1 wt. %”. The antimicrobial activity [4] was “confirm the antimicrobial activity”, the antimicrobial activity [5] was “confirm the antimicrobial activity” and the antimicrobial activity [6] was “confirm the antimicrobial activity”. For the same compound, the “antimicrobial activity (body odor)” value [7] was “confirm the antimicrobial activity”, the temperature stability [8] was “elevated temperature stability” and the “stability over pH values” ([8]; wide range of pH values) was “high stability over a wide range of pH values”.
